Type in all cases: functional, cell-based
In one experiment the test system is SK-BR-3. Briefly: Compound was tested for antiproliferative activity against human SK-BR-3 cancer cell lines.
The test system of another experiment is A549. The experiment is described as follows: Compound was tested for antiproliferative activity against human A549 cancer cell lines using MTT assay. (Tetrazolium dyes change colour on reduction, which living cells bring about.)
Another experiment has as its system MKN-45. Briefly: Compound was tested for antiproliferative activity against human MKN45 cancer cell lines.

Structures are written as SMILES.

In general, IC50 refers to the concentration that inhibits the measured activity by half. Low readings indicate greater potency in that assay, high ones weaker potency in that assay. Take `O=C(/C=C/c1ccc(CNC(=O)c2ccc(N3CCN(Cc4cccnc4)CC3)cc2)cc1)NO`: the half-inhibitory concentration (IC50) was found to be 0.27 µM in the experiment on SK-BR-3, 1.65 µM with A549 and 2.94 µM in the experiment with MKN-45.
On to `O=C(/C=C/c1ccc(CNC(=O)c2ccc(N3CCN(Cc4ccccn4)CC3)cc2)cc1)NO`, for which the IC50 in the experiment with SK-BR-3 came out at 3.19 µM; in the experiment on A549 it was 12 µM; in the experiment with MKN-45, 38.6 µM.
The like results for `O=C(/C=C/c1ccc(CNC(=O)c2ccc(N3CCN(Cc4ccncc4)CC3)cc2)cc1)NO` were, in that order, 1.72 µM, 3.02 µM and 56.1 µM.
For `O=C(/C=C/C#Cc1ccc(NS(=O)(=O)c2ccccc2)cc1)NO` [OXAMFLATIN] the same measures were 0.59 µM, 0.84 µM and 1.07 µM.

(Values after ChEMBL document CHEMBL1145944, “Synthesis and biological evaluation of 3-(4-substituted-phenyl)-N-hydroxy-2-propenamides, a new class of histone deacetylase inhibitors” (J Med Chem, 2003).)
